In US20230233545A1, “TREATMENT OF ATRIAL DYSFUNCTION” (MyoKardia, Inc., priority 2020, published 2023):

Key:
[1] = system: beagle dogs (without left ventricular dysfunction); assay: AF inducibility and LA size/function with phenylephrine on board, dobutamine (Example 4); assay type: in vivo; conditions: FIG. 6
Protocol: Once sinus rhythm was re-established (cardioversion was used if AF persisted for more than 30 minutes), a third anesthetized ECHO was performed.
The effects of dobutamine on AF inducibility and LA size and function were examined by echocardiography (ECHO) and electrocardiogram (ECG) in beagle dogs with phenylephrine (PE) on board, and compared to the effects of PE alone. The beagle dogs (without left ventricular dysfunction) were assessed for left atrial function and size and for atrial fibrillation inducibility according to the protocols described in Example 3 (experimental design shown in FIG. 5), allowing for the effects of dobutamine to be compared to those of Compound I as shown in Example 3.

[2] = system: beagle dogs under isoflurane anesthesia, right-atrial burst pacing; assay: AF inducibility and LA size/function with phenylephrine on board (Example 3); conditions: P<0.05

Row | Structure (SMILES) | AF duration ([1]; dobutamine 1-10 μg/kg/hr infusion with PE) | LV contractility (ΔEF) ([1]; dobutamine 1-10 μg/kg/hr infusion) | SBP, change induced by phenylephrine ([2]; PE 0.5-20 μg/kg/min fixed rate) | LAmin under phenylephrine ([2]; PE 0.5-20 μg/kg/min, from 22.9±2.0) | SBP under phenylephrine ([2]; PE 0.5-20 μg/kg/min, from 88.6±2.7) | LAmin, change induced by phenylephrine ([2]; PE 0.5-20 μg/kg/min, increase)
1 | CC(CCc1ccc(O)cc1)NCCc1ccc(O)c(O)c1 (stereo not drawn) [dobutamine] | did not reduce AF duration, and in fact increased it | increase LV contractility | – | – | – | –
2 | CNC[C@H](O)c1cccc(O)c1 [phenylephrine, reference compound] | – | – | 38±7% | 29.3±2.5 mL/m^2 | 122.4±6.9 mmHg | 28±3%
